# In patent US20240360133A1, “FUSED TRICYCLIC COMPOUND, PREPARATION METHOD THEREFOR AND APPLICATION THEREOF IN MEDICINE” (Jiangsu Hengrui Pharmaceuticals Co., Ltd., priority 2020, published 2024):
# Experiments:
# human TLR7 = target: T1, human TLR7 (Homo sapiens, UniProt Q9NYK1); assay: Inhibitory effect on human TLR7 activation pathway (HEK-Blue hTLR7 SEAP reporter); format: cell-based; conditions: HEK-Blue hTLR7 cells, 1 μM resiquimod, 20 h, SEAP OD620
# T1 construct: host or cells: HEK-Blue hTLR7 (HEK293)
# T1 sequence (Q9NYK1 27-1049): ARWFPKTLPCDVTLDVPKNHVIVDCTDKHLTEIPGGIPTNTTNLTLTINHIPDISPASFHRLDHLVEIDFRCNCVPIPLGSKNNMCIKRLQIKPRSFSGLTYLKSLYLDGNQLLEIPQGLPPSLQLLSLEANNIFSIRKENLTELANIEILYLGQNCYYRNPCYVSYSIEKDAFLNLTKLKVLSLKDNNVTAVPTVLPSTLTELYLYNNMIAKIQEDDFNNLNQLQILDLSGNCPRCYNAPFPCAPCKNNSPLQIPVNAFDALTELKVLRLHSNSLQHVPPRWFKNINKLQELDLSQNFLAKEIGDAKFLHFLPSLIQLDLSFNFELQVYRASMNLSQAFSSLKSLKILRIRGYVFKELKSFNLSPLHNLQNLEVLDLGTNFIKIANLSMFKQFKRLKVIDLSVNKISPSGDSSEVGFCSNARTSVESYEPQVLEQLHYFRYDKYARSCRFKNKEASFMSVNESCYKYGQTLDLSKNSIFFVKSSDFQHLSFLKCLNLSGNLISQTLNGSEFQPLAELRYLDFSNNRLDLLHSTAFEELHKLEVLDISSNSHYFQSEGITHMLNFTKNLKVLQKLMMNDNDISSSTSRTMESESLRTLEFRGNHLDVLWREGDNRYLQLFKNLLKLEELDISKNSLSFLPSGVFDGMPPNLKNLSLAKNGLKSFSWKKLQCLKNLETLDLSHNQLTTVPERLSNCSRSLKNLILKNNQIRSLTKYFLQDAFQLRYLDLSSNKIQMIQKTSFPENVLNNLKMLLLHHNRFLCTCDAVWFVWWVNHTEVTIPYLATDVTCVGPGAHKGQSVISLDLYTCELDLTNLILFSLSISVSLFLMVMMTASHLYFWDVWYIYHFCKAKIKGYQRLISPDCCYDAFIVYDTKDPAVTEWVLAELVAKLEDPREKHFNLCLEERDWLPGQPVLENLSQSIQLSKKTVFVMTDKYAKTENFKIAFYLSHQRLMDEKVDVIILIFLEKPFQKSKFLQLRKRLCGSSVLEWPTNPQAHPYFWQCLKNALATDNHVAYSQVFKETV
# Protocol: (§1) • 1. HEK-Blue™ hTLR7 cell (Invivogen) • 2. Resiquimod (R848, Invivogen) • 3. Alkaline phosphatase detection medium (Quanti-Blue Detection, Invivogen) • 4. Blasticidin (Invivogen) • 5. Zeocin (Invivogen) • 6. Normocin (Invivogen) • 7. DMEM/HIGH Glucose (GE Healthcare) • 8. Fetal bovine serum (FBS, Gibco) • 9. Phosphate-buffered saline (Shanghai BasalMedia Technologies Co., Ltd.) • 10. Sterile purified water (made in-house by Shanghai Hengrui) • 11. 15 mL centrifuge tube (Corning) • 12. %-well formulating plate (Corning) • 13. 96-well flat-bottom cell culture plate (Corning) • 14. Constant-temperature cell incubator (Thermo scientific) • 15. Constant-temperature incubator (Shanghai Yiheng Scientific Instruments Co., Ltd.) • 16. PHERAstar FS microplate reader (BMG Labtech)
# (§2) HEK-Blue™ hTLR7 cells were purchased from Invivogen. These cells are HEK293 cells transfected with the human Toll-like receptor 7 (TLR7) gene and the secreted alkaline phosphatase reporter gene (SEAP). The alkaline phosphatase reporter gene (SEAP) is under the regulation of the IFN—P minimal promoter comprising 5 NF-kB and AP-1 binding sites. Upon activation of TLR7 with an agonist, SEAP secretion is induced via downstream NF-kB and AP-1. After addition of an antagonist compound, the pathway described above is inhibited, and SEAP secretion is reduced. The activity of the compounds for the TLR7 pathway was evaluated by measuring OD620 through the SEAP substrate.
# (§3) 20 mM test compounds dissolved in 100% DMSO were serially diluted with 100% DMSO to 2000, 400, 80, 16, 3.2, 0.64, 0.128, 0.0256 μM, with blank wells containing 100% DMSO. The compounds and 100% DMSO were then 20-fold diluted in DMEM/HIGH glucose media containing 10% inactivated FBS (complete media, the same applies below). Resiquimod was diluted to 10 μM with sterile water. The 10 μM resiquimod dilution in sterile water was added to a 96-well cell culture plate at 20 μL/well. The above compounds diluted in complete media and 100% DMSO were then added at 20 μL/well to wells containing resiquimod, 20 μL of sterile water and 20 μL of 100% DMSO diluted in the complete medium were added to negative control wells.
# (§4) HEK-Blue™ hTLR7 cells were cultured in a DMEM/HIGH glucose medium containing 10% inactivated FBS, 100 μg/mL Normocin, 10 μg/mL blasticidin, and 100 μg/mL Zeocin. Cells that were in a good state of growth and had grown to 70%-80% were collected. The growth medium was discarded, 5-10 mL of PBS pre-heated at 37° C. was added to wash the cells once, and 2-5 mL of pre-heated PBS was added. The cells were cultured at 37° C. for 1-2 min, dispersed by pipetting, transferred to a 15 mL centrifuge tube, and counted, and the cell density was adjusted to 4.8-10′/mL with the complete medium. After density adjustment, 160 μL of the resulting cell suspension was added to the above 96-well cell culture plate to a final number of cells per well of 76,500/well. The final concentration of resiquimod was 1 μM, and the final concentrations of the test compounds were 10,000, 2000, 400, 80, 16, 3.2, 0.64, and 0.128 nM. The cells were cultured in a 37° C., 5% CO2 incubator for 20 h. Then 20 μL of the supernatant was added to 180 μL of the prepared alkaline phosphatase detection medium and incubated in the dark in a constant-temperature incubator at 37° C. for 120 min. Then the OD620 absorbance readings were taken on a microplate reader. The inhibition rate was calculated using the following formula: […]
# Inhibition curves were plotted using Graphpad Prism software according to the concentrations of the compounds and the corresponding inhibition rates, and the concentrations of the compounds at which the inhibition rate reached 50%, i.e., IC50 values, were calculated and are shown in Table 1.
# human TLR8 = target: T2, human TLR8 (Homo sapiens, UniProt Q9NR97); assay: Inhibitory effect on human TLR8 pathway (HEK-Blue hTLR8 SEAP reporter); format: cell-based; conditions: HEK-Blue hTLR8 cells, 6 μM resiquimod, 20 h, SEAP OD620
# T2 construct: host or cells: HEK-Blue hTLR8 (HEK293)
# T2 sequence (Q9NR97 27-1041): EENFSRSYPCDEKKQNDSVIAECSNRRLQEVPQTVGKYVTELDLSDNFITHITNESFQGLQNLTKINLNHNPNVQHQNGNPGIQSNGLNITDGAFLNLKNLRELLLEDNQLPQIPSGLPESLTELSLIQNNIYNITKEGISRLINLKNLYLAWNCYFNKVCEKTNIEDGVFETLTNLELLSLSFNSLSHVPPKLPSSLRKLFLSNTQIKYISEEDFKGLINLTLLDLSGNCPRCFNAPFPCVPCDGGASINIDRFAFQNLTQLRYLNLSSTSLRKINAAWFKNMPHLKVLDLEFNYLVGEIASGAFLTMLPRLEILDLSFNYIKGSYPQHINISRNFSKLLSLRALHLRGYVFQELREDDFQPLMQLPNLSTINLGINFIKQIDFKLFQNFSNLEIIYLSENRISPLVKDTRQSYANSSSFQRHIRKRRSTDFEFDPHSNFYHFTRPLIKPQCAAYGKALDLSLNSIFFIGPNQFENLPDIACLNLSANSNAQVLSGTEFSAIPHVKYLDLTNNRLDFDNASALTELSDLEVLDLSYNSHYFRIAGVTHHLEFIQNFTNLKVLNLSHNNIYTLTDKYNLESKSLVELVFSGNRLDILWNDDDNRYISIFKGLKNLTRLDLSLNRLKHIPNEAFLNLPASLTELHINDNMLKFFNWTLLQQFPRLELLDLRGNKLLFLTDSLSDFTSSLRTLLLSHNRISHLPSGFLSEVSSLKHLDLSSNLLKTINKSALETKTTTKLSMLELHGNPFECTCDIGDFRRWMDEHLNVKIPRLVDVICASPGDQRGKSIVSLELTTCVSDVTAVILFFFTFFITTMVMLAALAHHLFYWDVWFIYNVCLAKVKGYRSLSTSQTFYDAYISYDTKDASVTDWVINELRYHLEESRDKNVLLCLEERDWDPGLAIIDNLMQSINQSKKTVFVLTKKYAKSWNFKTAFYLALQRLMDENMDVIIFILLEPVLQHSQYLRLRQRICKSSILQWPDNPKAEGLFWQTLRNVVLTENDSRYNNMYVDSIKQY
# Protocol: as §1, with “hTLR8” for “hTLR7”, “96-well” for “%-well”
# as §2, with “hTLR8” for “hTLR7”, “8 (TLR8)” for “7 (TLR7)”, “TLR8” for “TLR7”
# as §3, with “to 60” for “to 10”, “The 60” for “The 10”
# as §4, with “HEK-Blue™ hTLR8” for “HEK-Blue™ hTLR7”, “to 70%-8%” for “to 70%-80%”, “to 4.8×10^5/mL” for “to 4.8-10′/mL”, “was 6” for “was 1”, “min. The” for “min. Then the”
# Inhibition curves were plotted using Graphpad Prism software according to the concentrations of the compounds and the corresponding inhibition rates, and the concentrations of the compounds at which the inhibition rate reached 50%, i.e., IC50 values, were calculated and are shown in Table 2.
Compound,IC50 (human TLR7),IC50 (human TLR8)
"Cc1cc(-c2[nH]c3cc4c(nc3c2C(C)C)CC(NC2CCOC2)CC4)cc(C)n1 (centres unmarked) [Example 3, 2-(2,6-Dimethylpyridin-4-yl)-3-isopropyl-N-(tetrahydrofuran-3-yl)-5,6,7,8-tetrahydro-1H-pyrrolo[3,2-b]quinolin-6-amine]",14.9 nM,
"Cc1cc(-c2[nH]c3cc4c(nc3c2C2CCOCC2)CNCC4)cc(C)n1 [Example 6, 2-(2,6-Dimethylpyridin-4-yl)-3-(tetrahydro-2H-pyran-4-yl)-5,6,7,8-tetrahydro-1H-pyrrolo[3,2-b][1,7]naphthyridine]",,10.5 nM
